The values that follow come from US20180320177A1, “COMPOSITIONS AND METHODS FOR THE TREATMENT OF LIVER FIBROSIS” (UNIVERSITY OF CONNECTICUT, priority 2015, published 2018).

Series [1] concerns TIC cells. Kind of series: TIC cell migration and invasion assays. Format: cell-based. To be noted: TIC cells (FIG. 7C, 7D). Here is the method:
(§1) Cell Lines The LX-2 human stellate cell line was maintained in Dulbecco's Modified Eagle's Medium (DMEM) supplemented with 2% fetal bovine serum (FBS), 100 IU/ml penicillin, and 100 μg/ml streptomycin. Human hepatocellular carcinoma (HCC) MHCC97H cells were maintained in DMEM supplemented with 10% FBS, 100 IU/ml penicillin, and 100 μg/ml streptomycin, 1 mM HEPES, 1 mM sodium pyruvate, 2 mM L-glutamine. Tumor-initiating (TIC) cells were obtained from Dr. Hidekazu Tsukamoto at University of Southern California and were maintained in 1:1 DMEM:F12 supplement with 100 U/ml penicillin and 100 μg/ml streptomycin, 2 mM glutamine, 20 ng/ml mouse EGF, 10 nM dexamethasone, 1× embryomax nucleotides. All the cells were maintained at 37° C. humidified atmosphere with 5% CO2. TIC cells were infected with Hmgb2 shRNA lentivirus for 48 hr, and treated with 500 ng/ml puromycin for 2 weeks. The stable cells were used for migration and invasion assay, as well as western blot.
Cell Migration and Invasion: Cell migration and invasion assays were performed as described in the art. Briefly, control TIC cells or TIC cells with a stable knockdown of HMGB2 were infected with AAV8-Null or AAV-8-HMGB2 for 48 hr. The cells were then serum starved for 24 hr and 5×10^4 cells were seeded on transwell inserts with 8 μm pore size (Culterx® 96 well cell migration assay, cat# 3465-095-K). Cells were allowed to migrate for 16 hr. Non-migrating cells were removed from the insert with a cotton swab. The migrated cells were fixed for 10 min (3.7% v/v formaldehyde in PBS), and stained with 0.1% crystal violet for 15 min. Cells were washed with PBS and pictures were taken with Microfire/Qcam CCD Olympus 1×81 microscope. Cells stained with crystal violet were counted and then lysed with 1% SDS for 30 min and the absorbance was measured at 570 nm. Cell invasion assays were performed similarly to migration assays, except that the cells were seeded on pre-coated inserts with BME solution (Cultrex® 96 well BME cell invasion Assay, cat# 3455-096-K). Invaded cells were fixed, stained and the absorbance was measured as in the migration assay.

In series [2] the test system is MMP and Rho signaling. Kind of series: Western blot of MMP and Rho signaling in TIC cells. It is filed as cell-based. To be noted: TIC cells (FIG. 7E). Here is the method:
Western Blotting: Total protein lysates were prepared from livers and cells in lysis buffer containing 50 mM Tris, pH 8.0, 1% Nonidet™ P-40, 150 mM NaCl, 0.5% sodium deoxycholate, 0.1% SDS with protease inhibitors (Thermo Fisher Scientific) and subjected to immunoblotting. Nuclear and cytoplasmic subcellular fractions were prepared using NE-PER nuclear and cytoplasmic extraction reagents (Pierce) according to the manufacturer's instructions. The blot was incubated with a primary antibody, followed by a secondary antibody conjugated to horseradish peroxidase. ECL kit (Pierce) was used to detect the reactivity. The following antibodies were obtained from Cell Signaling Technology: HMGB2, HMGB1, AKT, p-AKT, mTOR, p-mTOR, ERK1/2, pERK1/2, Raptor, Rictor, p53, p21, p-Bad, Smad4, p-Smad2/3, Lamin A/C, a-SMA, MMP2, MMP9, TIMP1, RhoA, Rho-GTP, Cdc42, Rac1/2/3. Anti-HA antibody and anti-beta actin antibody were purchased from Sigma and Santa Cruz Biotechnology, respectively.
as §1

For series [3], the system named is CGR8 ES cells. Put plainly: CGR8 ES cell differentiation and EB formation. Format: cell-based, mouse. The protocol: Cell culture, Cell transfection:HEK293T, Hela, Hep3B and MHCC97H cells were cultured and transfected using X-tremeGENE™ HP DNA transfection reagent (Roche) as described previously. CGR8 ES cells were cultured on 0.1% gelatin coated tissue-culture dish in knockout DMEM medium containing 15% ES qualified-Fetal Bovine Serum, 2 mM L-glutamin, 0.1 mM NEAA, 0.1 mM β-mercaptoethanol, 50 μg/ml penicillin-streptomycin and 10 ng/ml Leukemia inhibitory factor (LIF). TIC cells were cultured in DMEM-F12 medium containing Embryomax nucleotides, 2 mM L-glutamin, 0.1 mM NEAA, 20 ng/ml mouse EGF, 50 μg/ml penicillin-streptomycin and […].
ES cells EB formation and TICs spheroid assay: CGR8 ES cells were trypsinized into single cells and cultured in ES medium devoid of LIF in hanging drops (900 cells per EB) for 2 d and transferred to ultralow attachment plate for a further 2 d suspension culture. Then, EBs were plated onto gelatin coated tissue-culture plate for further 7 d spontaneously differentiation.
FIGS. 10A-C show the establishment of CGR8 cell culture and differentiation. […] Undifferentiated feeder-free CGR8 ES cells were maintained on 0.1% gelatin coated 6-cm tissue-culture dish in ES medium containing 10 ng/ml Leukemia inhibitory factor (LIF). For EB formation, CGR8 ES cells were trypsinized into single cells and cultured in ES medium devoid of LIF in hanging drops (900 cells per EB) for 2 d and in suspension culture for a further 2 d. Then, EBs were transferred onto gelatin coated tissue-culture plate for further spontaneously differentiation. ES withdraw LIF 2d, CGR8 ES cells were cultured in ES medium devoid of LIF for 2 d.
FIG. 14A is Left, Western blot of HMGB2 and SOX2 protein in HEK293T cells transfected with 0.5 μg […] expression plasmid and 0, 1 or 2 μg Flag-HMGB2 expression plasmid. Right, Western blot of HMGB2 and OCT4 protein in HEK293T cells transfected with 0.5 μg HA-OCT4 expression plasmid and 0, 1 or 2 μg Flag-HMGB2 expression plasmid. […] CGR8 cells were lysed, co-immunoprecipitated with OCT4 antibody, followed by Western blot with HMGB2 or OCT4 antibodies. FIG. 14 C is a luciferase reporter assay. HepG2 cells were infected with AAV8-GFP or AAV8-HMGB2 24 hrs before being transfected with 6*OS luciferase reporter and OCT4, SOX2 expression plasmids alone or in combination.

Consider `CC1(C)Oc2cc(O)ccc2C2C1=CCn1c(=O)n(-c3ccccc3)c(=O)n12` (centres unmarked) [ICM, inflachromene], for which, in series [1], the cell invasion result was “markedly blocks” and the cell migration result was “markedly blocks”. Besides, in series [2], the MMP signaling entry is given as “decreased” and the Rho signaling result is reported as “decreased”. In addition, the CGR8 differentiation entry in series [3] (5 μM ICM versus DMSO (FIG. 14E)) was “induces CGR8 differentiation”.
For “shHMGB2: small hairpin RNA against HMGB2 (SEQ ID NO: 8), delivered by AAV or lentivirus (CCGGGCTCAACATTAGCTTCAGTATCTCGAGATACTGAAGCTAATGTTGAGCTTTTTG)”, in series [1], the cell invasion result is given as “decreased” and the cell migration result was “decreased”. Further, in series [2], the MMP signaling result was “decreased” and the Rho signaling entry is on record as “decreased”. Besides, the “spheroid formation of CGR8 cells” value in series [3] (EB formation, AAV8 infection versus AAV8-Null (FIG. 14D)) is “decreases spheroid formation”. Besides, in series [3] (knockdown of HMGB2 (summary)), the CGR8 differentiation result is listed as “promotes CGR8 differentiation”.
